Here are results for 2 compounds from patent publication US12213480B2, “Biocidal formulation” (For Spills Ltd., priority 2018, dated 2025).

Test in all cases: Suspension test of biocide with or without perlite, 1 minute contact
Assay [1] has as its system Aspergillus brasiliensis ATCC 16404.
The test system of assay [2] is Pseudomonas aeruginosa ATCC 15442.
Assay [3] concerns Staphylococcus aureus ATCC 6538.

On to `O=c1nc([O-])n(Cl)c(=O)n1Cl.[Na+]` [Sodium Dichloroisocyanurate, sodium dichloroisocyanurate], for which the figures for the “R reduction in viability” value in assay [1], in assay [2] and in assay [3] were 2.84 Log 10, 3.71 Log 10 and above 6.23 Log 10, respectively. The Vc viable count in assay [1] (dilution N, duplicate plates) is on record as >165; >165 cfu.
With `CC1(C)C(=O)N(Cl)C(=O)N1Br` [BDCMH], the “R reduction in viability” value in assay [1] is reported as −0.01 Log 10; in assay [2], 1.00 Log 10; in assay [3], 1.92 Log 10. Also, the Vc viable count in assay [1] (dilution N, duplicate plates) is reported as >165; >165 cfu; in assay [1] (dilution −1, duplicate plates) it was >165; >165 cfu; in assay [1] (dilution −2, duplicate plates) it was >165; >165 cfu; in assay [1] (dilution −3, duplicate plates) it was >165; >165 cfu; in assay [2] (dilution −1, duplicate plates), >330; >330 cfu; in assay [2] (dilution −2, duplicate plates) it was >330; >330 cfu. The Vc viable count in assay [2] (dilution −3, duplicate plates) was >330; >330 cfu; in assay [3] (dilution −1, duplicate plates), >330; >330 cfu; in assay [3] (dilution −2, duplicate plates) it was >330; >330 cfu.
